Target: T1, SdC4H (CYP73A111) with SdCPR (Scoparia dulcis, UniProt U5N2L3)
T1 construct: gene C4H; full-length ORF in pET28b, His-tagged, E. coli BL21(DE3), crude soluble fraction; redox partner recombinant SdCPR (GenBank KF306080) added; with NADPH--cytochrome P450 reductase
Experiment: HPLC detection of 4-hydroxylated product
Format: biochemical
Details: 1 mM trans-cinnamic acid, 2 mM NADPH, recombinant SdCPR, 50 mM phosphate pH 7.4, 30 °C, 30 min

T1 sequence (U5N2L3 entry or part of it): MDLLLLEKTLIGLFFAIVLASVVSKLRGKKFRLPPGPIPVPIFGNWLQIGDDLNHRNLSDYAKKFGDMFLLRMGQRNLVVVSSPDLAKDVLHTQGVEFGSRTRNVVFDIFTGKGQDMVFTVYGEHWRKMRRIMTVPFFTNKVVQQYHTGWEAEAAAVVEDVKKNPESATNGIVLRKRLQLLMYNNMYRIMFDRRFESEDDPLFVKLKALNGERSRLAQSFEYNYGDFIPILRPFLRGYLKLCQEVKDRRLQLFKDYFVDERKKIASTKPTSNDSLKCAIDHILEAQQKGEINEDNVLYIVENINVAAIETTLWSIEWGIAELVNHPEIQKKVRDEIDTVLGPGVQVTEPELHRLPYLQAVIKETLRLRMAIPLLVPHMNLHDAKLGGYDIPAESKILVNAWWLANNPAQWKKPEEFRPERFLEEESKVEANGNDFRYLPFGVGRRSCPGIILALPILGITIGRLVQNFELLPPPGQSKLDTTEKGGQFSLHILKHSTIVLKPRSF
T1 sequence (U5N352 entry or part of it, further chain): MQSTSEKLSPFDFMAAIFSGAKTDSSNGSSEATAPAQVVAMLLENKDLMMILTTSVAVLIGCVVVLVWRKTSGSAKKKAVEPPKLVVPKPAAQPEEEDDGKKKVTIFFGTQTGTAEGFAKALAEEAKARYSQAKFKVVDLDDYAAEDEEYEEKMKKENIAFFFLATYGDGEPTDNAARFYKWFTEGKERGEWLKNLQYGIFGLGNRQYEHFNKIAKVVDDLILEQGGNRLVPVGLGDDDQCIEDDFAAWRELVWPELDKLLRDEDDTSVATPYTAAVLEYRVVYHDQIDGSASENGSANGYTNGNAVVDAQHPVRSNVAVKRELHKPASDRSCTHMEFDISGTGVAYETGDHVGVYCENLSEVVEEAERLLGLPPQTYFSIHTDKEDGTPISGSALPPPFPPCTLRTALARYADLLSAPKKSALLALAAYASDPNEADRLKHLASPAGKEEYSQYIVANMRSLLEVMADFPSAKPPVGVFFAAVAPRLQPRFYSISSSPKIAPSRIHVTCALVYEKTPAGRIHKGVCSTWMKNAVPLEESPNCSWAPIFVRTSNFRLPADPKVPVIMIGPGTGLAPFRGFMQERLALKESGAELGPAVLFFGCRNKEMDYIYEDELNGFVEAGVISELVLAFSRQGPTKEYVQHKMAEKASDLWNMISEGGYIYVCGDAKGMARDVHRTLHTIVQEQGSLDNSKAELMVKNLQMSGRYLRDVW

For O=C(O)/C=C/c1ccccc1 [trans-cinnamic acid], the “HPLC detection of 4-hydroxylated product” value was “the C4H activity (trans-cinnamic acid was 4-hydroxylated) of recombinant SdC4H was detected by HPLC”.
